Laboratory results reported in PubChem BioAssay (NCI).
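In this assay, cells in 96-well plates receive the compound at five concentrations for 48 hours. Endpoints are linearly interpolated between the surrounding concentrations. GI50: concentration for 50% inhibition of growth. At the TGI there is no net growth.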

Legend:
Assay in all cases: growth of human tumour cells (NCI), 48 h
A549 NSCLC = system: A549 NSCLC
NCI-H522 lung = system: NCI-H522 lung
TK-10 renal = system: TK-10 renal
HCT-15 colon = system: HCT-15 colon
UO-31 renal = system: UO-31 renal
OVCAR-4 ovarian = system: OVCAR-4 ovarian
M14 melanoma = system: M14 melanoma
HS 578T breast = system: HS 578T breast
MCF7 breast = system: MCF7 breast
MDA-MB-435 = system: MDA-MB-435

Row | Compound | TGI (A549 NSCLC) [µM] | TGI (NCI-H522 lung) [µM] | TGI (TK-10 renal) [µM] | TGI (HCT-15 colon) [µM] | TGI (UO-31 renal) [µM] | TGI (OVCAR-4 ovarian) [µM] | TGI (M14 melanoma) [µM] | GI50 (A549 NSCLC) [µM] | GI50 (HS 578T breast) [µM] | TGI (HS 578T breast) [µM] | GI50 (NCI-H522 lung) [µM] | GI50 (TK-10 renal) [µM] | GI50 (HCT-15 colon) [µM] | GI50 (UO-31 renal) [µM] | GI50 (MCF7 breast) [µM] | TGI (MCF7 breast) [µM] | GI50 (OVCAR-4 ovarian) [µM] | GI50 (M14 melanoma) [µM] | GI50 (MDA-MB-435) [µM] | TGI (MDA-MB-435) [µM]
1 | COC(=O)C1Cc2c(n(C)c3ccccc23)C(c2ccccc2)N1 (stereo not given) | > 100 | 93.1 | > 100 | > 100 | > 100 | > 100 | > 100 | – | – | – | – | – | – | – | – | – | – | – | – | –
2 | C=CC[P@@]1(=O)O[C@H](c2ccccc2)C(C)N1C(C)C (stereo not given in full) | > 100 | – | > 100 | > 100 | > 100 | > 100 | > 100 | – | – | – | – | – | – | – | – | – | – | – | – | –
3 | O=[N+]([O-])c1ccc(OCCNc2cccc3ccccc23)cc1 | > 100 | > 100 | > 100 | > 100 | > 100 | > 100 | > 100 | – | – | – | – | – | – | – | – | – | – | – | – | –
4 | O=C1C(c2ccc(Cl)cc2)=[N+]([O-])c2ccccc21 | 37.7 | 21.9 | 30.1 | 41.3 | > 100 | – | 27.7 | – | – | – | – | – | – | – | – | – | – | – | – | –
5 | COC(=O)C/C(C)=C/[C@@H](O)[C@H]1O[C@@H]2CC/C(Cl)=C/C/C=C(/C)[C@H](OC(C)=O)CC(=O)O[C@@H]1C2 | > 25 | > 25 | 1.32 | > 25 | > 25 | – | – | 10 | 0.546 | 2.14 | 1.29 | 0.489 | 8.01 | 1.85 | 4.86 | 15.7 | – | – | – | –
6 | N#Cc1c2ccccc2c2nnc3cc(C(F)(F)F)ccc3n12 | > 100 | – | > 100 | > 100 | > 100 | > 100 | > 100 | 36.3 | – | – | – | 99.8 | 93.4 | 70.3 | 10.7 | 80.9 | 55.5 | 29.7 | 31.4 | > 100
7 | O=[N+]([O-])c1ccc2c(c1)OCCOCCOc1ccc([N+](=O)[O-])cc1OCCOCCO2 | > 100 | > 100 | > 100 | > 100 | > 100 | > 100 | > 100 | – | – | – | – | – | – | – | – | – | – | – | – | –
8 | CC1=CCP(C(F)(F)F)P(C(F)(F)F)C1 (stereo not given) | > 100 | > 100 | > 100 | > 100 | > 100 | > 100 | > 100 | – | – | – | – | – | – | – | – | – | – | – | – | –
9 | N#C[C@]12CC3(CC[C@H]1CC1(C2)OCCO1)OCCO3 | > 100 | > 100 | > 100 | > 100 | > 100 | > 100 | > 100 | – | – | – | – | – | – | – | – | – | – | – | – | –
10 | Cc1cc(N(CCC#N)CCC#N)ccc1N=Nc1ccccc1[N+](=O)[O-] | > 100 | > 100 | > 100 | > 100 | > 100 | > 100 | > 100 | – | – | – | – | – | – | – | – | – | – | – | – | –
11 | CCCCCCC(O)C/C=C/CCCCCC/C(C(=O)OC)=C(/O)C(=O)OCC (stereo not given) | > 100 | > 100 | > 100 | > 100 | > 100 | > 100 | > 100 | – | – | – | – | – | – | – | – | – | – | – | – | –
12 | Cc1ccc(C)c(NC(=O)CC2C(=O)Nc3ccccc3S2(=O)=O)c1 (stereo not given) | > 100 | – | > 100 | > 100 | > 100 | 38.7 | > 100 | – | – | – | – | – | – | – | – | – | – | – | – | –
13 | CC(=O)CC(=O)CCCC(=O)Nc1ccc(Cl)cc1Cl | > 100 | > 100 | > 100 | > 100 | > 100 | > 100 | > 100 | – | – | – | – | – | – | – | – | – | – | – | – | –
14 | N.N.NCCCCN.O=C([O-])CC(=O)[O-].O=C([O-])CC(=O)[O-].[Pt+4].[Pt+4] | > 100 | 62.5 | > 100 | > 100 | > 100 | > 100 | > 100 | > 100 | – | – | 18.2 | > 100 | > 100 | 59.4 | – | – | > 100 | > 100 | – | –
15 | NCCCn1c2c(c3ccccc3c1=O)C(=O)c1cc3c(cc1-2)OCO3 | 0.658 | 4.79 | 4.17 | 0.882 | 1.99 | – | 1.51 | 0.0273 | 0.687 | 4.31 | 0.474 | – | 0.101 | 0.265 | 0.126 | > 52.7 | – | 0.118 | 1.43 | 8.1
16 | COC(=O)C(=O)C(C(=O)C(=O)Nc1ccc([N+](=O)[O-])cc1[N+](=O)[O-])c1nc2ccc([N+](=O)[O-])cc2[nH]c1=O (stereo not given) | > 100 | > 100 | > 100 | > 100 | > 100 | > 100 | > 100 | – | – | – | – | – | – | – | – | – | – | – | – | –
17 | CN(C)CCN1N=Nc2cccc3cccc1c23 | > 100 | > 100 | > 100 | > 100 | > 100 | > 100 | > 100 | – | – | – | – | – | – | – | – | – | – | – | – | –
18 | COc1ccc(/C=C\c2cc(OC)c(OC)c(OC)c2)cc1NC(=O)[C@@H](N)CO | > 100 | 0.0457 | > 100 | > 100 | > 69.7 | > 100 | > 100 | 0.0295 | 0.0309 | > 100 | < 0.01 | 19.3 | 0.0165 | 0.0486 | 0.0207 | > 100 | 0.0355 | 0.0123 | – | –
19 | O=C1C2c3[nH]c4ccccc4c3C3CCSCC3C2C(=O)N1c1ccccc1 (stereo not given) | > 100 | > 100 | > 100 | > 100 | > 100 | > 100 | > 100 | – | – | – | – | – | – | – | – | – | – | – | – | –
20 | CCN(CC)c1ccc2[nH]c3c(C(N)=O)cc(=O)c(=O)c=3oc2c1 | 5.12 | – | – | > 100 | 4.12 | 11.5 | 4.17 | 1.75 | 0.663 | > 100 | – | – | 1.51 | 1.07 | 1.68 | > 100 | 2.03 | 1.61 | 0.377 | 9.78
